Source: patent publication US7297696B2, “Antagonists of MCP-1 function and methods of use thereof” (Telik, Inc., priority 2001, dated 2007)

How the values were obtained:
Format in all cases: in vivo
apoE-deficient mice = assay: Apolipoprotein E-deficient mouse model of atherosclerosis; details: 50 mg/kg as food admixture for 8 weeks, high-fat diet; percent of total cross-sectional wall area
Procedure: Apolipoprotein E (apoE) is a component of several plasma lipoproteins, including chylomicrons, VLDL, and HDL. Receptor-mediated catabolism of these lipoprotein particles is mediated through the interaction of apoE with the LDL receptor (LDLR) or with LDLR-related protein (LRP). […] The efficacy of the compounds of the present invention was also evaluated using this animal model.
Male, 4 week-old apoE-deficient mice were fed on high-fat diet (15% fat, 1.25% cholesterol). The test compound was administered as food admixture for 8 weeks. At 12 weeks old, the mice were fasted for 4 hours and then sacrificed under ether anesthesia. […]
To determine cross-sectional lesion areas, the hearts were embedded in OCT compound and sectioned at 10 μm using cryostat. The sections were stained with oil red O. Each section of the aortic valve was evaluated for oil red O staining by capturing images directly from a RGB camera attached to a light microscope; image analysis was performed with the IPAP-WIN software (Sumika Tekno, Japan). Five sections were examined for each animal, and the sum of the lesion areas was calculated and expressed as the percent of the total cross-sectional wall area. Total cholesterol was determined with a Determiner assay kit (Kyowa Medex, Japan).

ICR male mice = assay: Thioglycollate-induced inflammation model; details: peritoneal cavity, 96 h; 10 mg/kg subcutaneous at 0 h, 3 h and 16 hours
Procedure: 3% Brewer's thioglycollate broth (Difco, Detroit, Mich.) was injected into the petitoneal cavity of ICR male mice, followed by subcutaneous administration of the test compounds at the same dose after 0 h, 3 h and 16 hours. After 96 h, the number of total elicited cells and MOMA2-positive cells in the peritoneal cavity was analyzed using an EPICS XL Beckman Coulter.

male ICR mice = assay: Caerulein-induced pancreatitis; details: 20 mg/kg orally after caerulein injection, then at 3 h and 6 h; blood after 15 h
Procedure: Caerulein was injected intraperitoneally to male ICR mice every 1 h for 6 h. The test compound was given orally immediately after the caerulein injection, and then again at 3 h and 6 h. After 15 h, the mice were sacrificed and their blood was collected and analyzed for serum amylase activity as a marker of pancreatitis.

| Compound | % Atherosclerotic Lesion (mean ± SD) (apoE-deficient mice) | MOMA2-positive Cells (ICR male mice) | Total Cells (ICR male mice) | Serum Amylase Level (U, Caraway, mean ± SD) (male ICR mice) |
| --- | --- | --- | --- | --- |
| O=C(O)COc1ccc(NC(=O)NC(=O)c2ccc3c(c2)OCCO3)cc1Cl [Compound 55, 2-(4-{[(2H,3H-Benzo[e]1,4-dioxan-6-ylcarbonylamino)carbonyl]amino}-2-chlorophenoxy)acetic acid] | 17.80 ± 3.43 % | 10.1 ± 1.5 ×10^6 | 14.1 ± 1.6 ×10^6 | – |
| O=C(NC(=O)c1ccc2c(c1)OCCO2)Nc1ccc(C(=O)[O-])c(Cl)c1.[Na+] [Compound 57, Sodium 4-{[(2H,3H-benzo[e]1,4-dioxan-6-ylcarbonylamino)carbonyl]amino}-2-chlorobenzoate] | – | – | – | 551 ± 157 U, Caraway |
| O=C(NC(=O)c1ccc2c(c1)OCCO2)Nc1ccc(C(=O)[O-])cc1.[Na+] [Compound 59, Sodium 4-{[(2H,3H-benzo[3,4-e]1,4-dioxin-6-ylcarbonylamino)carbonyl]amino}benzoate] | 21.08 ± 6.86% | 13.2 ± 1.4 ×10^6 | 17.3 ± 1.7 ×10^6 | – |
